Tests used:
[1] = Fluorescence quantum yield of BDSA in solution and as nanoaggregates; format: physicochemical
Excerpt: A representative transmission electron microscopic (TEM) image of the obtained nanoaggregates with a diameter of 44±7 nm is shown in FIG. 1a. […] The fluorescence quantum yield (Φf) of nanoaggregated state varies (0.1˜0.3), depending on the preparation conditions, including solvent, solvent/water ratio, and overall dye concentration, etc. […] No notable sign of H- or J-aggregation was observed, implying that molecular stacking is neither too close nor well ordered within the nanoaggregated structure. The fluorescence quenching in solution can be understood as dominant non-radiative decay, enhanced by free intramolecular torsional motion in solution, as in the case of flexible molecules showing viscosity-dependent fluorescence. Moreover, the weak, broad, and red-shifted emission of the solution, compared to that of the aggregate, implies the existence of large-amplitude relaxation in the excited state, such as twisted intramolecular charge transfer (TICT) which often acts as an intramolecular fluorescence quencher due to the nπ* characteristics. This is supported by our observation of intense and blue-shifted monomer fluorescence from a dilute solid solution of BDSA in PMMA film, where isolated molecules are frozen in the distorted form by rigid matrix, to prevent fluorescence quenching motion. The structural effect on aggregate formation and fluorescence was studied with a specific comparison between BDSA and the 1,4-phenylene analogue, BDSB, by varying the solvent/water ratio.

[2] = One- and two-photon excited fluorescence of HPPH/BDSA nanoparticles (intraparticle FRET); format: physicochemical; conditions: free HPPH, self-aggregation
Description: To produce fluorescent domains of BDSA aggregates in the particle matrix, the following amounts were loaded to induce phase separation: 10, 20, and 30 wt % with respect to the total VTES amount. Fluorescence lifetime measurements were performed using Time correlated Single Photon Counting (TCSPC) technique. For this measurements, Ti:Sapphire laser providing 800 nm femtosecond pulses was used as excitation source and a SPC-830 TCSPC module (Becker & Hickl) with an H7422 (Hamamatsu) detector with a response time in the range of 250 ps was used for the measurements. […] For an estimation of the instrument response function (IRF), a dye with a known fluorescence lifetime (from Streak camera measurements), less than 50 ps was used. […] For quantitative comparison, the concentrations of the nanoparticle water dispersions were kept the same for all the sample sets. The dispersions of all examined HPPH-loaded nanoparticles had the absorbance of 0.07 at 665 nm.
When excited at 425 nm, the obtained fluorescence spectrum of the coencapsulating nanoparticles is a composite of the emission contributions from the donor BDSA aggregates and the acceptor HPPH. Compared with the fluorescence intensities of the nanoparticles containing the corresponding amount of each dye, BDSA emission is quenched by 70% and HPPH emission is amplified ca. 5 times, indicating the occurrence of FRET. […]

Row | Fluorescence quantum yield (Φf) ([1]; NMP solution) | Fluorescence intensification by aggregation ([1]; aggregate versus NMP solution) | Fluorescence change on aggregate formation ([1]; varying solvent/water ratio, THF/H2O, 5 μM (FIG. 2)) | Fluorescence in water dispersions [2] | Compound
1 | ~0.009 | more than 30 times | Enhanced fluorescence is seen | – | CN(CCOC(=O)c1ccccc1)c1ccc(C=Cc2ccc(C=Cc3c4ccccc4c(C=Cc4ccc(C=Cc5ccc(N(C)CCOC(=O)c6ccccc6)cc5)cc4)c4ccccc34)cc2)cc1 [BDSA, 9,10-Bis(4′-{4″-[N-methyl-N-(2-benzoyloxyethyl)amino]styryl}styryl)anthracene]
2 | – | – | – | completely quenched | CCCCCCOC(C)C1=C(C)c2cc3nc(c4c5[nH]c(cc6[nH]c(cc1n2)c(C)c6CC)c(C)c5C(=O)C4)C(CCC(=O)O)C3C (stereo not shown) [HPPH, 2-devinyl-2-(1-hexyloxyethyl)pyropheophorbide]
